Assay results: US12612368B2 (Remedy Plan, Inc., priority 2019, dated 2026)
Read-outs that look alike come from different tables or passages of the source.

Legend:
NAMPT = target: T1, NAMPT (Homo sapiens, UniProt P43490); test: NAMPT Activity Assay (Abcam #ab221819); assay type: biochemical; conditions: purified NAMPT, two-step reaction, OD450 nm; percent inhibition vs no drug; compound concentration not stated
T1 construct: purchased Abcam ab221819

MV-4-11 cells = test: Cell viability in MV-4-11 cells (CellTiter Glo2); assay type: cell-based; conditions: Homo sapiens, MV4-11, 96 h, 8-point dose response, 4 days
Experimental: Approximately 10,000 MV-4-11 cells per well of a 96-well plate were treated with DMSO (no drug control) or each compound in Tables E1 and E2 in an 8-point dose response for 4 days, Cell viability was measured using CellTiter Glo2. The ICse of each compound was determined using CDD Vault.

[1] = CellTiter Glo2 (Table E2), read-out: MV-4-11 Cell Viability, MV-4-11 IC50
[2] = CellTiter Glo2 (Table E1), read-out: MV-4-11 IC50

T1 sequence (P43490 whole entry): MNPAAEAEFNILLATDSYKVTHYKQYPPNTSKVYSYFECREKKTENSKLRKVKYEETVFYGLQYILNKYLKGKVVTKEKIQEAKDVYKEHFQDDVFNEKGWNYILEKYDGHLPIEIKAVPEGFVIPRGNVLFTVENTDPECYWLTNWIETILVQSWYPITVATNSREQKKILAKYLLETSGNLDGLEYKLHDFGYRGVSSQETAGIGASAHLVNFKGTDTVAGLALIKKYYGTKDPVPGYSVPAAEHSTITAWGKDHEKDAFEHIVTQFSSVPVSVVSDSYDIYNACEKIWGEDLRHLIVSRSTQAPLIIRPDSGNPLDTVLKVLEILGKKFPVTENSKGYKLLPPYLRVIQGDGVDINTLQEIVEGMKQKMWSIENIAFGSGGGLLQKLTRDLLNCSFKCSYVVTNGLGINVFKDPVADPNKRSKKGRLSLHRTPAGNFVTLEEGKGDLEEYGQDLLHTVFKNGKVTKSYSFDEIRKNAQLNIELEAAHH

Row | Compound | NAMPT Inhibition Code (NAMPT) | IC50 (MV-4-11 cells; [1]) [nM] | IC50 (MV-4-11 cells; [2]) [nM]
1 | CC(=O)N(CC1CC1)c1ccc(-c2ccc(C(=O)Nc3ccc4nccn4c3)cn2)cc1Cl [Compound I-681, 6-[4-[Acetyl(cyclopropylmethyl)amino]-3-chloro-phenyl]-N-imidazo[1,2-a]pyridin-6-yl-pyridine-3-carboxamide] | C (C = ≥66% inhibition) | 1.31 | 
2 | CC(=O)N(CCC#N)c1ccc(-c2ccc(C(=O)NCc3cccnc3)cn2)cc1 [Compound I-484, 6-[4-[acetyl(2-cyanoethyl)amino]phenyl]-N-(3-pyridylmethyl)pyridine-3-carboxamide] | A (A = <33% inhibition) | 2660 | 
3 | CCC(=O)N(C)c1ccc(-c2ccc(C(=O)NCc3ccc(Cl)nc3)cn2)cc1 [Compound I-396, N-[(6-chloro-3-pyridyl)methyl]-6-[4-[methyl(propanoyl)amino]phenyl]pyridine-3-carboxamide] | C (C = ≥66% inhibition) |  | 6560
4 | CC(C)CN(CC(C)C)c1ccc(-c2ccc(C(=O)NCc3cccnc3)cc2)cc1 [Compound I-406, 4-[4-(diisobutylamino)phenyl]-N-(3-pyridylmethyl)benzamide] | B (B = ≥33 to <66% inhibition) |  | 817
5 | COC(=O)NCCN(C(C)=O)c1ccc(-c2ccc(C(=O)NCc3cccnc3)cn2)cc1 [Compound I-466, Methyl N-[2-[N-acetyl-4-[5-(3-pyridylmethylcarbamoyl)-2-pyridyl]anilino]ethyl]carbamate] | A (A = <33% inhibition) | 871 | 
6 | CCC(=O)N(CC(C)C)c1ccc(-c2ccc(C(=O)NCc3cccnc3)cn2)cc1 [Compound I-403, 6-[4-[isobutyl(propanoyl)amino]phenyl]-N-(3-pyridylmethyl)pyridine-3-carboxamide] | C (C = ≥66% inhibition) |  | < 11.7
7 | CCc1cc(-c2ccc(C(=O)NCc3cccnc3)cn2)ccc1N(C)C(C)=O [Compound I-605, 6-[4-[Acetyl(methyl)amino]-3-ethyl-phenyl]-N-(3-pyridylmethyl)pyridine-3-carboxamide] | B (B = ≥33 to <66% inhibition) | 351 | 
8 | CC(=O)N(CC1CC1)c1ccc(-c2ccc(C(=O)Nc3cnc4[nH]ncc4c3)cn2)cc1Cl [Compound I-693, 6-[4-[Acetyl(cyclopropylmethyl)amino]-3-chloro-phenyl]-N-(1H-pyrazolo[3,4-b]pyridin-5-yl)pyridine-3-carboxamide] | B (B = ≥33 to <66% inhibition) |  | 
9 | CC(=O)N(C)c1ccc(-c2ccc(C(=O)NCc3cccnc3F)cn2)cc1C [Compound I-436, 6-[4-[acetyl(methyl)amino]-3-methyl-phenyl]-N-[(2-fluoro-3-pyridyl)methyl]pyridine-3-carboxamide] |  |  | 13800
10 | CC(=O)N(CC1CC1)c1ccc(-c2ccc(C(=O)NCc3ccc(F)nc3)cn2)cc1Cl [Compound I-696, 6-[4-[Acetyl(cyclopropylmethyl)amino]-3-chloro-phenyl]-N-[(6-fluoro-3-pyridyl)methyl]pyridine-3-carboxamide] | C (C = ≥66% inhibition) |  | 
11 | CC(=O)N(CC1CC1)c1ccc(-c2ccc(C(=O)NCc3ccc(C)nc3)cn2)cc1Cl [Compound I-697, 6-[4-[Acetyl(cyclopropylmethyl)amino]-3-chloro-phenyl]-N-[(6-methyl-3-pyridyl)methyl]pyridine-3-carboxamide] | C (C = ≥66% inhibition) |  | 
12 | CC(=O)N(CC1CC1)c1ccc(-c2ccc(C(=O)NCc3ccccn3)cn2)cc1Cl [Compound I-698, 6-[4-[Acetyl(cyclopropylmethyl)amino]-3-chloro-phenyl]-N-(2-pyridylmethyl)pyridine-3-carboxamide] | A (A = <33% inhibition) |  | 
13 | CC(=O)N(C)c1ccc(-c2ccc(C(=O)NCc3cccnc3C)cn2)cc1C [Compound I-428, 6-[4-[acetyl(methyl)amino]-3-methyl-phenyl]-N-[(2-methyl-3-pyridyl)methyl]pyridine-3-carboxamide] |  |  | 3460

Next, values leading:

Row | NAMPT Inhibition Code (NAMPT) | IC50 (MV-4-11 cells; [1]) [nM] | IC50 (MV-4-11 cells; [2]) [nM] | Compound
14 | A (A = <33% inhibition) |  | 3520 | CCC(=O)N(C)c1ccc(-c2ccc(C(=O)NCc3ccc(C)nc3C)cn2)cc1 [Compound I-394, N-[(2,6-dimethyl-3-pyridyl)methyl]-6-[4-[methyl(propanoyl)amino]phenyl]pyridine-3-carboxamide]
15 | C (C = ≥66% inhibition) | 32.8 |  | CC(=O)N(CC1CC1)c1ccc(-c2ccc(C(=O)NCc3ccc(Cl)nc3)cn2)cc1Cl [Compound I-689, 6-[4-[Acetyl(cyclopropylmethyl)amino]-3-chloro-phenyl]-N-[(6-chloro-3-pyridyl)methyl]pyridine-3-carboxamide]
16 | A (A = <33% inhibition) |  | 6230 | CCC(=O)N(C)c1ccc(-c2ccc(C(=O)NCc3cccnc3C)cn2)cc1 [Compound I-392, 6-[4-[methyl(propanoyl)amino]phenyl]-N-[(2-methyl-3-pyridyl)methyl]pyridine-3-carboxamide]
17 | B (B = ≥33 to <66% inhibition) | 220 |  | CC(=O)N(CC(F)F)c1ccc(-c2ccc(C(=O)NCc3cccnc3)cn2)cc1C [Compound I-608, 6-[4-[Acetyl(2,2-difluoroethyl)amino]-3-methyl-phenyl]-N-(3-pyridylmethyl)pyridine-3-carboxamide]
18 | B (B = ≥33 to <66% inhibition) |  | 82.5 | CC(=O)N(CC1CC(F)(F)C1)c1ccc(-c2ccc(C(=O)NCc3cccnc3)cn2)cc1 [Compound I-412, 6-[4-[acetyl-[(3,3-difluorocyclobutyl)methyl]amino]phenyl]-N-(3-pyridylmethyl)pyridine-3-carboxamide]
19 | C (C = ≥66% inhibition) | < 6.64 |  | CC(=O)N(CC(C)C)c1ccc(-c2ccc(C(=O)NCc3cccnc3)cn2)cc1C [Compound I-594, 6-[4-[Acetyl(isobutyl)amino]-3-methyl-phenyl]-N-(3-pyridylmethyl)pyridine-3-carboxamide]
20 | A (A = <33% inhibition) | 1340 |  | CC(=O)N(CC1CC(F)(F)C1)c1ccc(-c2ccc(C(=O)NCc3cccnc3C)cn2)cc1C [Compound I-485, 6-[4-[Acetyl-[(3,3-difluorocyclobutyl)methyl]amino]-3-methyl-phenyl]-N-[(2-methyl-3-pyridyl)methyl]pyridine-3-carboxamide]
21 | C (C = ≥66% inhibition) | 340 |  | CC(=O)N(CC1CC1)c1ccc(-c2ccc(C(=O)NCc3cccnc3F)cn2)cc1Cl [Compound I-685, 6-[4-[Acetyl(cyclopropylmethyl)amino]-3-chloro-phenyl]-N-[(2-fluoro-3-pyridyl)methyl]pyridine-3-carboxamide]
22 |  |  | 10000 | CC(=O)N(C)Cc1ccc(-c2ccc(C(=O)NCc3cccnc3)nc2)cc1 [Compound I-319, 5-[4-[[acetyl(methyl)amino]methyl]phenyl]-N-(3-pyridylmethyl)pyridine-2-carboxamide]
23 |  |  | 4030 | CCN(C(C)=O)c1ccc(-c2ccc(C(=O)NCc3cccnc3C)cn2)cc1C [Compound I-429, 6-[4-[acetyl(ethyl)amino]-3-methyl-phenyl]-N-[(2-methyl-3-pyridyl)methyl]pyridine-3-carboxamide]
